# Assay results: patent publication US8088819B2, “Derivatives of substituted 3-phenyl-1-(phenylthienyl)propan-1-ones and of 3-phenyl-1-(phenylfuranyl) propan-1-ones, preparation and use” (priority 2006, dated 2012)
# How the values were obtained:
# hPPARdelta = molecular target: T1, hPPARdelta (Homo sapiens, UniProt Q03181); assay: PPAR activation: Gal4-hPPARδ chimera luciferase transactivation in COS-7 cells, Method 1; assay type: cell-based; settings: COS-7, 24 h; for Emax: maximum percentage response relative to the reference GW501516, read-out: hPPARdelta % max
# T1 construct: expressed in transfected cells; host or cells: COS-7 (monkey kidney fibroblasts)
# T1 sequence (Q03181 211-439 limits assumed): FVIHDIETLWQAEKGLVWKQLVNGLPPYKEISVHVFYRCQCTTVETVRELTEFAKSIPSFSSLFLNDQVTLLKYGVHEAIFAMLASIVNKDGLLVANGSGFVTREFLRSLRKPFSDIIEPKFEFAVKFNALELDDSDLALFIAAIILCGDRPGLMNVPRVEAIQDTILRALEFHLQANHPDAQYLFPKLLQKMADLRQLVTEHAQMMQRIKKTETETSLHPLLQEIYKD
# How it was run: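 COS-7 cells transiently transfected with Gal4 DBD–human PPAR LBD (DEF domain) chimeras plus Gal4(RE)_TkpGL3 luciferase reporter (1/10 ratio). Compounds applied 24 h at 37 °C in serum-free medium at doses between 10^−5 and […]; luciferase read after lysis, EC50 derived.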
# [1] = tested on: ABCA1 gene in human macrophages (THP-1); assay: Reverse cholesterol transport: expression of the ABCA1 gene in human macrophages; assay type: cell-based; settings: 24 h
# Experimental: The effect of the compounds according to the invention on reverse cholesterol transport was evaluated by measuring the expression of the ABCA1 gene (ATP-binding cassette, sub-family A, member 1; membrane transporter involved in the efflux of cholesterol) in human macrophages. The more the expression of ABCA1 is increased, the greater the stimulating action of the compound according to the invention on reverse cholesterol transport.
# The THP1 human monocyte line (obtained from ATCC) is cultivated in RPMI1640 medium with addition of 25 mM Hepes (Gibco; 42401-018), 1% glutamine (Gibco; 25030-24), 1% penicillin/streptomycin (Biochrom AG; A 2213) and 10% decomplemented fetal calf serum (FCS. Gibco; 26050-088).
# The cells are seeded on 24-well plates (Primaria BD Falcon) at a density of 3·10^5 cells/well and incubated at 37° C. and 5% CO2 for 72 h in the presence of 30 ng/ml of phorbol 12-myristate 13-acetate (PMA) in order to differentiate them to macrophages. […]
# 1 μg of total RNA (quantified based on the spectrophotometer reading) was then reverse-transcribed to complementary DNA by reaction for 1 hour at 37° C. in a total volume of 30 μl containing buffer 1× (Invitrogen), 1.5 mM of DTT, 0.18 mM of dNTPs (Promega), 200 ng of pdN6 (Amersham), 30 U of RNase inhibitor (Promega) and 1 μl of MMLV-RT (Invitrogen).
# The quantitative PCR experiments were carried out using the MyiQ Single-Color Real-Time PCR Detection System (Biorad, Marnes-la-Coquette, France) and were performed using the iQ SYBR Green Supermix kit following the supplier's recommendations, in 96-well plates, on 5 μl of diluted reverse transcription reaction mixtures with a hybridization temperature of 60° C. […]
# The amount of fluorescence emitted is directly proportional to the amount of complementary DNA present at the start of the reaction and amplified during PCR. […] The relative expression levels of each target are thus determined using the efficacy curves obtained with the points in the range. […]
EC50 (hPPARdelta) [nM],Emax (hPPARdelta) [%],Structure (SMILES),expression of the gene coding for ABCA1 in human macrophages ([1]; at 1 μm),expression of the gene coding for ABCA1 in human macrophages ([1]; at 300 nM)
7,91,"CC(C)(Oc1ccc(CCC(=O)c2ccc(-c3ccc(C(F)(F)F)cc3)s2)c(Cl)c1Cl)C(=O)O [Compound 2, 2-(2,3-dichloro-4-(3-oxo-3-(5-(4-(trifluoromethyl)phenyl)thien-2-yl)propyl)phenoxy)-2-methylpropanoic acid]",significant increase,–
34,107,"CC(C)(Oc1ccc(CCC(O)c2ccc(-c3ccc(C(F)(F)F)cc3)s2)c(Cl)c1Cl)C(=O)O (stereo not drawn) [Compound 4, 2-(2,3-dichloro-4-(3-hydroxy-3-(5-(4-(trifluoromethyl)phenyl)thien-2-yl)propyl)phenoxy)-2-methylpropanoic acid]",significant increase,–
–,–,"CC(C)(Oc1ccc(CCC(OCc2ccccc2)c2ccc(-c3ccc(C(F)(F)F)cc3)s2)c(Cl)c1Cl)C(=O)O (stereo not drawn) [Compound 7, 2-(4-(3-(benzyloxy)-3-(5-(4-(trifluoromethyl)phenyl)thien-2-yl)propyl)-2,3-dichlorophenoxy)-2-methylpropanoic acid]",–,significant increase
3,105,"CC(C)(Oc1ccc(CCC(=O)c2cc(-c3ccc(C(F)(F)F)cc3)cs2)c(Cl)c1Cl)C(=O)O [Compound 11, 2-(2,3-dichloro-4-(3-oxo-3-(4-(4-(trifluoromethyl)phenyl)thien-2-yl)propyl)phenoxy)-2-methylpropanoic acid]",–,–
